Consider 23 molecules from patent publication US10611750B2, “Tetrahydroquinoline compositions as bet bromodomain inhibitors” (FORMA Therapeutics, Inc., priority 2013, dated 2020).

For experiment [1], the target named is T1, BRD4 Bromodomain 1 (BRD4 BD1) (Homo sapiens, UniProt O60885).
T1 construct: 44-168 and BRD4 BD2
The experiment in a line: AlphaScreen binding assay, BRD4 BD1. The note with it: His-tagged BRD4 BD1 50 nM, biotinylated H4 (1-21) K5/8/12/16 tetra-acetylated peptide 50 nM, compounds listed under IC50 range headings. Here is the method:
The binding of Example compounds to BRD4 Bromodomain 1 and BRD4 Bromodomain 2 was assessed using 384-well AlphaScreen assay technology. His-epitope tagged BRD4 BD144-168 and BRD4 BD2333-460 were cloned, expressed, and purified to homogeneity. BRD4 BD1 and BRD4 BD2 binding and inhibition was assessed by monitoring the engagement of biotinylated Histone H4 (1-21) K5/8/12/16 tetra-acetylated peptide with the targets using the AlphaScreen technology (PerkinElmer). Specifically, in a 384-well black or white flat bottom plate, BRD4 BD1 (50 nM final) or BRD4 BD2 (100 nM final) was combined with peptide (50 nM final for BD1 or 100 nM final for BD2) in 50 mM HEPES (pH 7.3), 100 mM NaCl, 0.1% (w/v) BSA, and 0.01% (w/v) Triton X-100 either in the presence of DMSO (final 1.25% DMSO) or compound dilution series in DMSO. Alpha streptavidin donor beads and Nickel-chelate acceptor beads were added to a final concentration of 10 μg/ml each. After a minimum of 1 hour equilibration, plates were read on a BMG PHERAstar FS multi-label reader (BMG LabTech). The half maximal inhibitory concentration (IC50) values were calculated using IDBS Activity Base software with a four parameter logistic curve fit by the equation y=A+((B−A)/(1+((C/x)^D))), wherein A denotes the bottom plateau of the curve, B denotes the top plateau of the curve, C denotes the x value at the middle of the curve, D denotes the slope factor, x denotes the original known x values, and y denotes the original known y values. Data was fitted using the Levenburg Marquardt algorithm.
(In general: Alpha assays give light when donor and acceptor beads are brought close together.)

Experiment [2] concerns acute myelocytic leukemia (AML) cell line MV4-11. Briefly: Oncology cell growth assay (3-day proliferation, CellTiter-Glo). Format: cell-based. Conditions: Homo sapiens, MV4-11, 72 h, MV4-11 cells, 3000 cells/well, compounds listed under IC50 range headings, read-out: MV411 IC50 (gIC50, inhibition of proliferation). As to the method:
The impact of Example compounds on cancer cell proliferation was determined using the acute myelocytic leukemia (AML) cell line MV4-11 (ATCC) in a 3-day proliferation assay. MV4-11 cells were maintained in RPMI 1640 media supplemented with 10% FBS at 37° C. and an atmosphere of 5% CO2. For compound testing, compound dilutions series were prepared in DMSO via a 3-fold serial dilution from 2 mM to 0.001 mM in 384-well white flat bottom plates. The final compound concentrations in the wells were 10, 3.3, 1.1, 0.37, 0.12, 0.041, 0.013 and 0.0045 μM. MV4-11 cells were plated at a density of 3000 cells/well in final volume of 50 μl culture media and incubated for 72 hours. […] Luminescent signal from the CellTiter-Glo assay was read on an EnVision multilabel plate reader (PerkinElmer). Values for the concentration that inhibited cell growth by 50% (gIC50) between the DMSO control and background control (no cells) were determined using IDBS Activity Base software with a four parameter logistic curve fit by the equation y=A+((B−A)/(1+((C/x)^D))), wherein A denotes the bottom plateau of the curve, B denotes the top plateau of the curve, C denotes the x value at the middle of the curve, D denotes the slope factor, x denotes the original known x values, and y denotes the original known y values. Data was fitted using the Levenburg Marquardt algorithm.
Background: ATP-based viability assays read luminescence as a measure of living cells.

Take `C[C@H]1CCc2c(Oc3ccccc3)c(-c3cnn(C4CCNCC4)c3)cc(F)c2N1C(=O)C1CC1` [I-204, (S)-cyclopropyl(8-fluoro-2-methyl-5-phenoxy-6-(1-(piperidin-4-yl)-1H-pyrazol-4-yl)-3,4-dihydroquinolin-1 (2H)-yl)methanone]: the figures for the IC50 in experiment [1] and in experiment [2] were 0.1 to 1 µM and less than 0.5 µM, respectively.
Regarding `COc1cccc(Oc2c(-c3cnn(C4CCNCC4)c3)cc(F)c3c2CC[C@H](C)N3C(=O)C2CC2)c1` [I-207, (S)-cyclopropyl(8-fluoro-5-(3-methoxyphenoxy)-2-methyl-6-(1-(piperidin-4-yl)-1H-pyrazol-4-yl)-3,4-dihydroquinolin-1(2H)-yl)methanone], the IC50 was 0.1 to 1 µM in experiment [1] and less than 0.5 µM in experiment [2].
The like results for `C[C@H]1CCc2c(ccc(-c3cnoc3)c2OC2CCC2)N1C(=O)C1CC1` [I-123, (S)-(5-cyclobutoxy-6-(isoxazol-4-yl)-2-methyl-3,4-dihydroquinolin-1(2H)-yl)(cyclopropyl)methanone] were, in that order, 1 to 10 µM and more than 1 µM.
In the same order, the values of `C[C@H]1CCc2c(OC3CCC3)c(-c3cnn(C4CC4)c3)cc(F)c2N1C(=O)C1CC1` [I-69, (S)-(5-cyclobutoxy-6-(1-cyclopropyl-1H-pyrazol-4-yl)-8-fluoro-2-methyl-3,4-dihydroquinolin-1(2H)-yl)(cyclopropyl)methanone] are 1 to 10 µM and 0.5 to 1 µM.
In the same order, the values of `CC(=O)N1c2c(F)cc(-c3cn(C)nn3)c(OC3CCC3)c2CC[C@@H]1C` [I-126, (S)-1-(5-cyclobutoxy-8-fluoro-2-methyl-6-(1-methyl-1H-1,2,3-triazol-4-yl)-3,4-dihydroquinolin-1(2H)-yl)ethanone] are 1 to 10 µM and more than 1 µM.
Take `C[C@H]1CCc2c(ccc(-n3cc(N4CCOCC4)cn3)c2Oc2ccccc2)N1C(=O)C1CC1` [I-338, (S)-cyclopropyl(2-methyl-6-(4-morpholino-1H-pyrazol-1-yl)-5-phenoxy-3,4-dihydroquinolin-1(2H)-yl)methanone]: the IC50 fell in the range of 1 to 10 µM in experiment [1] and 0.5 to 1 µM in experiment [2].
The like results for `C[C@H]1CCc2c(OC3CCC3)c(-c3cnn(C4CCNCC4)c3)cc(F)c2N1C(=O)C1CC1` [I-103, (S)-(5-cyclobutoxy-8-fluoro-2-methyl-6-(1-(piperidin-4-yl)-1H-pyrazol-4-yl)-3,4-dihydroquinolin-1(2H)-yl)(cyclopropyl)methanone] were, in that order, 0.1 to 1 µM and less than 0.5 µM.
With `C[C@H]1CCc2c(ccc(-c3cnn(C4CNC4)c3)c2Oc2cccc(Cl)c2)N1C(=O)C1CC1` [I-178, (S)-(6-(1-(azetidin-3-yl)-1H-pyrazol-4-yl)-5-(3-chlorophenoxy)-2-methyl-3,4-dihydroquinolin-1 (2H)-yl)(cyclopropyl)methanone], the results for the IC50 in experiment [1] and in experiment [2] were 0.1 to 1 µM and less than 0.5 µM, respectively.
In the same order, the values of `C[C@H]1CCc2c(ccc(-c3nnc(N)s3)c2Oc2ccccc2)N1C(=O)C1CC1` [I-184, (S)-(6-(5-amino-1,3,4-thiadiazol-2-yl)-2-methyl-5-phenoxy-3,4-dihydroquinolin-1(2H)-yl)(cyclopropyl)methanone] are 0.1 to 1 µM and less than 0.5 µM.
In the same order, the values of `C[C@H]1CCc2c(ccc(-c3cn(C)cn3)c2Oc2ccccc2)N1C(=O)C1CC1` [I-221, (S)-cyclopropyl(2-methyl-6-(1-methyl-1H-imidazol-4-yl)-5-phenoxy-3,4-dihydroquinolin-1(2H)-yl)methanone] are 0.1 to 1 µM and less than 0.5 µM.
In the same order, the values of `C[C@H]1CCc2c(ccc(-c3cn(C)nn3)c2Oc2ccc(F)cc2)N1C(=O)C1CC1` [I-236, (S)-cyclopropyl(5-(4-fluorophenoxy)-2-methyl-6-(1-methyl-1H-1,2,3-triazol-4-yl)-3,4-dihydroquinolin-1 (2H)-yl)methanone] are 0.1 to 1 µM and less than 0.5 µM.
`COC(=O)N1c2c(F)cc(-c3cn[nH]c3)c(OC3CCC3)c2CC[C@@H]1C` [I-72, (S)-methyl 5-cyclobutoxy-8-fluoro-2-methyl-6-(1H-pyrazol-4-yl)-3,4-dihydroquinoline-1(2H)-carboxylate]: the IC50 is 0.1 to 1 µM in experiment [1] and less than 0.5 µM in experiment [2].
In the case of `CC(=O)N1c2ccc(-c3cnn(C4CC4)c3)c(OCC(C)C)c2CC[C@@H]1C` [I-394], the values for the IC50 in experiment [1] and in experiment [2] were 0.1 to 1 µM and less than 0.5 µM, respectively.
In the same order, the values of `COC(=O)N1c2ccc(-c3cnn(C4CC5CN(C)CC5C4)c3)c(OC3CCC3)c2CC[C@@H]1C` (stereo partly drawn) [I-248, (2S)-methyl 5-cyclobutoxy-2-methyl-6-(1-(2-methyl-octahydrocyclopenta[c]pyrrol-5-yl)-1H-pyrazol-4-yl)-3,4-dihydroquinoline-1(2H)-carboxylate] are 0.1 to 1 µM and less than 0.5 µM.
In the same order, the values of `C[C@H]1CCc2c(Oc3ccccc3)c(-c3cn[nH]c3)cc(F)c2N1C(=O)C1CC1` [I-238, (S)-cyclopropyl(8-fluoro-2-methyl-5-phenoxy-6-(1H-pyrazol-4-yl)-3,4-dihydroquinolin-1(2H)-yl)methanone] are 1 to 10 µM and less than 0.5 µM.
In the same order, the values of `C[C@H]1CCc2c(ccc(-c3cn(C)nn3)c2Oc2ccccc2F)N1C(=O)C1CC1` [I-320, (S)-cyclopropyl(5-(2-fluorophenoxy)-2-methyl-6-(1-methyl-1H-1,2,3-triazol-4-yl)-3,4-dihydroquinolin-1(2H)-yl)methanone] are 0.1 to 1 µM and less than 0.5 µM.
Take `COC(=O)N1c2ccc(-c3cnn(C4CCS(=O)(=O)CC4)c3)c(OC3CCC3)c2CC[C@@H]1C` [I-341, methyl (2S)-5-cyclobutoxy-6-[1-(1,1-dioxo-1λ^6-thian-4-yl)-1H-pyrazol-4-yl]-2-methyl-1,2,3,4-tetrahydroquinoline-1-carboxylate]: the IC50 in experiment [1] is 0.1 to 1 µM; in experiment [2] it was 0.5 to 1 µM.
In the same order, the values of `COC(=O)N1c2ccc(-c3c[nH]c(C4CCNCC4)n3)c(OC3CCC3)c2CC[C@@H]1C` [I-303, methyl (S)-5-cyclobutoxy-2-methyl-6-(2-(piperidin-4-yl)-1H-imidazol-4-yl)-3,4-dihydroquinoline-1(2H)-carboxylate] are 0.1 to 1 µM and less than 0.5 µM.
For the molecule `C[C@H]1CCc2c(ccc(-c3cnn(C4CS(=O)(=O)C4)c3)c2Oc2ccc(F)cc2)N1C(=O)C1CC1` [I-229, 3-[4-[(2S)-1-cyclopropanecarbonyl-5-(4-fluorophenoxy)-2-methyl-1,2,3,4-tetrahydroquinolin-6-yl]-1H-pyrazol-1-yl]-1λ^6-thietane-1,1-dione], the figures for the IC50 in experiment [1] and in experiment [2] were 0.1 to 1 µM and less than 0.5 µM, respectively.
In the case of `CC(=O)N1c2ccc(-c3cnn(C4CCNCC4)c3)c(Oc3cc(F)ccc3F)c2CC[C@@H]1C` [I-276, (S)-1-(5-(2,5-difluorophenoxy)-2-methyl-6-(1-(piperidin-4-yl)-1H-pyrazol-4-yl)-3,4-dihydroquinolin-1(2H)-yl)ethanone], the IC50 in experiment [1] was 0.1 to 1 µM; in experiment [2], less than 0.5 µM.
As to `CNC(=O)c1nc(-c2ccc3c(c2OC2CCC2)CC[C@H](C)N3C(=O)OC)cs1` [I-130, (S)-methyl 5-cyclobutoxy-2-methyl-6-(2-(methylcarbamoyl)thiazol-4-yl)-3,4-dihydroquinoline-1(2H)-carboxylate], the IC50 in experiment [1] was 0.1 to 1 µM; in experiment [2] it was less than 0.5 µM.
In the same order, the values of `C[C@H]1CCc2c(ccc(-c3cn(C4CCNCC4)nn3)c2Oc2ccccc2)N1C(=O)C1CC1` [I-312, (S)-cyclopropyl(2-methyl-5-phenoxy-6-(1-(piperidin-4-yl)-1H-1,2,3-triazol-4-yl)-3,4-dihydroquinolin-1(2H)-yl)methanone] are less than 0.1 µM and less than 0.5 µM.
In the same order, the values of `COC(=O)N1c2ccc(-n3cc(N4CCNCC4)cn3)c(Oc3ccccc3)c2CC[C@@H]1C` [I-340, (S)-methyl 2-methyl-5-phenoxy-6-(4-(piperazin-1-yl)-1H-pyrazol-1-yl)-3,4-dihydroquinoline-1(2H)-carboxylate] are 1 to 10 µM and more than 1 µM.
